From patent publication US20260042754A1, “Substituted Bicyclic Heteroaryl Sulfonamide Derivatives for the Treatment of Cancer” (NODUS ONCOLOGY LIMITED, priority 2022, published 2026)
pIC50: −log10 of the molar value.

What was measured:
RMUG-S = assay: Modified cell proliferation assay (CellTiter-Glo), RMUG-S, Examples 12-44; type: cell-based; conditions: Examples 12-44: modified protocol, 384-well, 300 cells per well, 120 h; highest concentration tested 9000 nM; read-out: RMUG-S GI50 (high PARG dependency)
Procedure: (§1) The cell proliferation assay protocol was modified and used for RMUG-S for Examples 12-44, and subsequently used to test Examples 1-44 in the NCI-H1650 cell line.
(§2) NCI-H1650 (ATCC, #CRL-5883) or RMUG-S were seeded on day 1 at 300 cells per well in a 384-well plate (Greiner, #781080) that assure assay linearity and optimal signal intensity in 25 μL of RPMI1640 media (Pan Biotech, #P04-22100) containing 10% FCS (Capricorn, #FBS-11A; Lot. CP22-5141) and 1% Glutamine (Pan Biotech, #P04-80100). After incubation for 24 h in humidified chambers at 37° C./5% CO2, compounds/DMSO were dispensed at different concentrations using an Echo 520 (Beckman Coulter). Cells were further incubated for 120 h at 37° C. and 5% CO2. Cells treated with the compound vehicle DMSO were used as negative controls and cells treated with 10 μM Staurosporine (LC Laboratories, #S-9300) served as positive controls.
(§3) At day 6 the CellTiter Glo Reagent was prepared according to the instructions of the kit (Promega Inc.): Reagent was mixed 1:1 with cell culture medium. Thereon, mixture and assay plates were equilibrated at room temperature for 20 min. Equal volumes of the reagent-medium-mixture were added to the volume of culture medium present in each well. The plates were mixed at […] for 2 minutes on an orbital shaker (Timix5, Edmund Buehler GmbH). The microplates were then incubated at room temperature for 10 minutes for stabilization of the luminescent signal. Following incubation, the luminescence was recorded on a Victor X5 microplate reader (Perkin Elmer) using a 200 ms integration time. The data was then analyzed with Excel using the XLFIT Plugin (dose response Fit 205) for determination of the concentration necessary for half-maximal inhibition (i.e. the inflection point of the fitted curve).
(§4) As quality control the Z′-factor was calculated from 16 positive and negative control values. Only assay results showing a Z′-factor≥0.5 were used for further analysis.

NCI-H1650 = assay: Modified cell proliferation assay (CellTiter-Glo), NCI-H1650; type: cell-based; conditions: Homo sapiens, NCI-H1650; modified protocol, 384-well, 300 cells per well, 120 h; highest concentration tested 30000 nM; read-out: NCI-H1650 GI50 (high PARG dependency)
Procedure: as §1, §2, §3, §4

[1] = molecular target: Recombinant His-tagged human PARG protein (Homo sapiens (Human), UniProt Q86W56); assay: PARG enzymatic assay (TFMU-ADPr fluorescence); type: biochemical; conditions: 1 nM enzyme, 200 μM TFMU-ADPr, read after 30 minutes
Sequence of Recombinant His-tagged human PARG protein (Q86W56 whole entry): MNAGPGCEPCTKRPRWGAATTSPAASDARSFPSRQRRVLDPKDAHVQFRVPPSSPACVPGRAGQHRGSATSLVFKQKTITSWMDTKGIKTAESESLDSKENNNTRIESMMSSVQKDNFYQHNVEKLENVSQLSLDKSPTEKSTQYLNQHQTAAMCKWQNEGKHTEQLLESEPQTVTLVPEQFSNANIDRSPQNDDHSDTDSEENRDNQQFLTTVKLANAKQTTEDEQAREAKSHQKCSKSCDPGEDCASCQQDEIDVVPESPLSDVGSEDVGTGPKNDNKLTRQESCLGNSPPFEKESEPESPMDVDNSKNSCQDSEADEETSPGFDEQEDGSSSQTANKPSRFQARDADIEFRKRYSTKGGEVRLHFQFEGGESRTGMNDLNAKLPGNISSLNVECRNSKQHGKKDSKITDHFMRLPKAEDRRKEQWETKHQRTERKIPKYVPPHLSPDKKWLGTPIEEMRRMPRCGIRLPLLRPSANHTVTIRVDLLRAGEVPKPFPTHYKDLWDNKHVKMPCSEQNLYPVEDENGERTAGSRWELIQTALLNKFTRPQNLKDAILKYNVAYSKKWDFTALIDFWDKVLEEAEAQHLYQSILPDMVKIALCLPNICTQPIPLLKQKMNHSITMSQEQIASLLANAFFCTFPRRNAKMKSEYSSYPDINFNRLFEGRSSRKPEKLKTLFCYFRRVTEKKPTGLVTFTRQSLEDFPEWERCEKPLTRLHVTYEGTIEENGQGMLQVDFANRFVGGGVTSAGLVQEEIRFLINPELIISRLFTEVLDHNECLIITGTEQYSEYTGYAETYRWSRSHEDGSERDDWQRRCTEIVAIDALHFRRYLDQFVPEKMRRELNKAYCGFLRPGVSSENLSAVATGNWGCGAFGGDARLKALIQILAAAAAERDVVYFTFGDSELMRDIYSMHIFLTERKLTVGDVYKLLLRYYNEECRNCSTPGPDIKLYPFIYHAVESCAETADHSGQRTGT
Procedure: Inhibition of PARG enzymatic activity by compounds was determined as follows: Recombinant His-tagged human PARG protein expressed in Sf21 insect cells (Adipogen AG, #40T-0022) was aliquoted and stored at −80° C. until use. The artificial enzyme substrate 4-(trifluoromethyl)umbelliferone (TFMU)-ADPr was prepared essentially as described (Drown B S et al, Cell Chemical Biology 2018) and stored at −20° C. as 10 mM stock solutions in DMSO (dimethyl sulfoxide) until use. For reactions, typical final concentration of the enzyme was 1 nM and of the TFMU-ADPr 200 μM. Reactions were carried out in black 384-well low volume round bottom assay plates (Corning, #4514) in a final volume of 10 μL. To this end, PARG was diluted to 1.67 nM in reaction buffer (50 mM K2HPO4, 50 mM KCl, 10 mM β-mercaptoethanol, pH 7.4) and 6 μL were dispensed per assay well using a multichannel pipette. Then compound was dispensed into each well using an Echo dispenser (BeckmanCoulter) to yield the pre-specified final concentration of the range of concentrations to be tested (typically 8-point serial concentrations ranging from either from 0.01 to 10 μM, or from 0.001 to 1 μM, or from 0.0001 to 0.1 μM), and being volume-corrected with 100% DMSO (0.5% final DMSO concentration in reaction mixtures). Plates were mixed, and after 15 minutes 4 μL TFMU-ADPr was added into each well using a multichannel pipette followed by brief mixing. Fluorescence intensity signals were then measured after 30 minutes on an EnVision microplate reader (PerkinElmer) using 380/10 nm and 535/25 nm filters for the excitation and emission, respectively (gain: 150). The assay window was set using DMSO control (top) and a control containing no PARG enzyme (bottom). Delta values were plotted as concentration-response curves fitted to a sigmoidal 4-parameter logistic model to calculate IC50 values (Scigilian Analyze).

[2] = molecular target: human PARG (PARG-NanoLuc fusion in HEK293T cells) (Homo sapiens (Human), UniProt Q86W56); assay: PARG NanoBRET-based cellular target engagement assay; type: cell-based; conditions: HEK293T cells transfected with PARG-NanoLuc, NanoBRET probe 0.89 μM, 2 hours; read-out: PARG TE IC50
Sequence of human PARG (PARG-NanoLuc fusion in HEK293T cells) (Q86W56 whole entry, the tested form may be a part): as the sequence (Q86W56 whole entry) above
Procedure: PARG Nano-luciferase construct: The PARG-NanoLuc® fusion vector was generated by Promega, by inserting the full length human PARG cDNA sequence encoding the 976 amino acid protein (Gene ID: 8505, UniProt: Q86W56) into the pNLF1-C [CMV/Hygro] vector (C-terminal fusions with NanoLuc® enzyme).
PARG target engagement tracer synthesis: The NanoBRET tracer for PARG was prepared following a previously reported general tracer synthesis procedure.
PARG Probe Displacement Assay Using NanoBRET: HEK293T (DSMZ #ACC 635) cells transiently transfected with the PARG-NanoLuc fusion construct were resuspended in phenol red-free OptiMEM (Gibco #11058-021) to a concentration of 2.4×10^5 cells/mL. 9 μL per well were then added to a white 384-well low volume microplate (Greiner #784080) and incubated for 24 hours under standard growth conditions.
Then compound was dispensed into each well using an Echo dispenser (BeckmanCoulter) to yield the pre-specified final concentration of the range of concentrations to be tested (typically 8-point serial concentrations ranging from either from 0.01 to 10 μM, or from 0.001 to 1 μM, or from 0.0001 to 0.1 μM), and being volume-corrected with 100% DMSO (0.5% final DMSO concentration in reaction mixtures).
After mixing and an incubation at room temperature for 15 min 1 μl of the NanoBRET probe (at 0.89 μM final concentration) was added to the microplate using a multichannel pipette. The plate was mixed and incubated in a 5% CO2 environment at 37° C. for 2 hours, and then 5 μL per well of a solution consisting of a 1:31.25 dilution of Nano-Glo substrate (Promega) and a 1:500 dilution of NanoLuc extracellular inhibitor (Promega) in phenol red-free OptiMEM was added to each well followed by another mixing step. Filtered luminescence was measured on an EnVision plate reader (PerkinElmer) equipped with a 460 nm filter (donor) and a 645 nm filter (acceptor). BRET ratios were plotted as concentration-response curves fitted to a sigmoidal 4-parameter logistic model to calculate IC50 values (Scigilian Analyze).

| SMILES | GI50 (NCI-H1650) | pIC50 [1] | pIC50 [2] | GI50 (RMUG-S) |
| --- | --- | --- | --- | --- |
| CO/N=c1\[nH]c2c(N3CCN(C)[C@H](C)C3)cc(S(=O)(=O)NC3(C)CC3)cc2c(=O)n1Cc1cnn(C)c1 [Example 21, (2E)-2-methoxyimino-N-(1-methylcyclopropyl)-3-[(1-methylpyrazol-4-yl)methyl]-4-oxo-8-[(3R)-3,4-dimethylpiperazin-1-yl]-1H-quinazoline-6-sulfonamide] | 500 to 2000 nM | > 7.52 | 7.00 to 7.52 | 500 to 2000 nM |
| CO/N=c1\[nH]c2c(C3CCN[C@H](C)C3)cc(S(=O)(=O)NC3(C)CC3)cc2c(=O)n1Cc1cnn(C)c1 (stereo partly drawn) [Example 24, (2E)-2-methoxyimino-N-(1-methylcyclopropyl)-3-[(1-methylpyrazol-4-yl)methyl]-4-oxo-8-[(2R)-2-methyl-4-piperidyl]-1H-quinazoline-6-sulfonamide] | > 2000 nM | > 7.52 | 6.00 to 7.00 | 2000 to 9000 nM |
| CO/N=c1\[nH]c2c(C3CCN(C)[C@H](C)C3)cc(S(=O)(=O)NC3(C)CC3)cc2c(=O)n1Cc1cnn(C)c1 (stereo partly drawn) [Example 25, (2E)-2-methoxyimino-N-(1-methylcyclopropyl)-3-[(1-methylpyrazol-4-yl)methyl]-4-oxo-8-[(2R)-1,2-dimethyl-4-piperidyl]-1H-quinazoline-6-sulfonamide] | 500 to 2000 nM | > 7.52 | 7.00 to 7.52 | 500 to 2000 nM |
| CO/N=c1\[nH]c2c(C3CCN(C(C)=O)[C@H](C)C3)cc(S(=O)(=O)NC3(C)CC3)cc2c(=O)n1Cc1cnn(C)c1 (stereo partly drawn) [Example 26, (2E)-2-methoxyimino-N-(1-methylcyclopropyl)-3-[(1-methylpyrazol-4-yl)methyl]-4-oxo-8-[(2R)-1-acetyl-2-methyl-4-piperidyl]-1H-quinazoline-6-sulfonamide] | 500 to 2000 nM | > 7.52 | > 7.52 | 2000 to 9000 nM |
| CO/N=c1\[nH]c2c(C3CCN(C(=O)C4(C)CC4)[C@H](C)C3)cc(S(=O)(=O)NC3(C)CC3)cc2c(=O)n1Cc1cnn(C)c1 (stereo partly drawn) [Example 27, (2E)-2-methoxyimino-N-(1-methylcyclopropyl)-3-[(1-methylpyrazol-4-yl)methyl]-4-oxo-8-[(2R)-2-methyl-1-(1-methylcyclopropanecarbonyl)-4-piperidyl]-1H-quinazoline-6-sulfonamide] | < 500 nM | > 7.52 | > 7.52 | < 500 nM |
| CO/N=c1\[nH]c2c(N3CCN(C(=O)N4CCC(F)(F)C4)[C@H](C)C3)cc(S(=O)(=O)NC3(C)CC3)cc2c(=O)n1Cc1cnn(C)c1 [Example 36, (R,E)-8-(4-(3,3-difluoropyrrolidine-1-carbonyl)-3-methylpiperazin-1-yl)-2-(methoxyimino)-3-((1-methyl-1H-pyrazol-4-yl)methyl)-N-(1-methylcyclopropyl)-4-oxo-1,2,3,4-tetrahydroquinazoline-6-sulfonamide] | < 500 nM | > 7.52 | > 7.52 |  |
| CO/N=c1\[nH]c2c(N3CCN(C(=O)N(C)CC(F)(F)F)[C@H](C)C3)cc(S(=O)(=O)NC3(C)CC3)cc2c(=O)n1Cc1cnn(C)c1 [Example 37, (R,E)-4-(2-(methoxyimino)-3-((1-methyl-1H-pyrazol-4-yl)methyl)-6-(N-(1-methylcyclopropyl)sulfamoyl)-4-oxo-1,2,3,4-tetrahydroquinazolin-8-yl)-N,2-dimethyl-N-(2,2,2-trifluoroethyl)piperazine-1-carboxamide] | < 500 nM | > 7.52 | > 7.52 |  |

Second part, led by results:

| GI50 (NCI-H1650) | pIC50 [1] | pIC50 [2] | SMILES | GI50 (RMUG-S) |
| --- | --- | --- | --- | --- |
| < 500 nM | > 7.52 | > 7.52 | CO/N=c1\[nH]c2c(N3CCN(C(=O)C4(C)CCC4)[C@H](C)C3)cc(S(=O)(=O)NC3(C)CC3)cc2c(=O)n1Cc1cnn(C)c1 [Example 38, (R,E)-2-(methoxyimino)-3-((1-methyl-1H-pyrazol-4-yl)methyl)-8-(3-methyl-4-(1-methylcyclobutane-1-carbonyl)piperazin-1-yl)-N-(1-methylcyclopropyl)-4-oxo-1,2,3,4-tetrahydroquinazoline-6-sulfonamide] |  |
| < 500 nM | > 7.52 | > 7.52 | CO/N=c1\[nH]c2c(N3CCN(C(=O)C4CCCC4)[C@H](C)C3)cc(S(=O)(=O)NC3(C)CC3)cc2c(=O)n1Cc1cnn(C)c1 [Example 39, (R,E)-8-(4-(cyclopentanecarbonyl)-3-methylpiperazin-1-yl)-2-(methoxyimino)-3-((1-methyl-1H-pyrazol-4-yl)methyl)-N-(1-methylcyclopropyl)-4-oxo-1,2,3,4-tetrahydroquinazoline-6-sulfonamide] |  |
| < 500 nM | > 7.52 | > 7.52 | CO/N=c1\[nH]c2c(N3CCN(C(=O)N4CCCC4)[C@H](C)C3)cc(S(=O)(=O)NC3(C)CC3)cc2c(=O)n1Cc1cnn(C)c1 [Example 40, (R,E)-2-(methoxyimino)-3-((1-methyl-1H-pyrazol-4-yl)methyl)-8-(3-methyl-4-(pyrrolidine-1-carbonyl)piperazin-1-yl)-N-(1-methylcyclopropyl)-4-oxo-1,2,3,4-tetrahydroquinazoline-6-sulfonamide] |  |
| < 500 nM | > 7.52 | > 7.52 | CO/N=c1\[nH]c2c(N3CCN(C(=O)N(C)C)[C@H](C)C3)cc(S(=O)(=O)NC3(C)CC3)cc2c(=O)n1Cc1cnn(C)c1 [Example 41, (R,E)-4-(2-(methoxyimino)-3-((1-methyl-1H-pyrazol-4-yl)methyl)-6-(N-(1-methylcyclopropyl)sulfamoyl)-4-oxo-1,2,3,4-tetrahydroquinazolin-8-yl)-N,N,2-trimethylpiperazine-1-carboxamide] |  |
